Results on 20 compounds are retold here after patent US12054494B2, “Compound with anticancer activity” (KYOWA KIRIN CO., LTD., priority 2018, dated 2024).

Usually IC90 stands for the concentration at which the effect reaches the 90% level. Read a low IC90 as greater potency.

This assay deals with SU-DHL-4 cells. Briefly: Inhibitory effect on cell viability (Cell Counting Kit-8). Format: cell-based. To be noted: Homo sapiens, 72 hours culture with test compound, concentration showing 90% inhibition rate of cell viability. In short, it runs like this: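 IC90 corresponds to 90% loss of viability, measured as CCK-8 absorbance at 450 nm (2-3 h colour development). Compounds in 9 dilutions (0.1% DMSO) were applied for 72 h at 37° C to SU-DHL-4 lymphoma cells seeded at 2000/well in RPMI1640/10% FBS after 18-25 h preculture.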
On the technique in general: Formazan colour is commonly taken as a measure of viable cells.

Take `CCC(=O)N1c2ccccc2[C@H](Nc2ccc(C(=O)N3CCn4c(C(O)c5ccc(N[C@@H]6C[C@H](C)N(C(=O)CC)c7ccccc76)cc5)cnc4C3)cc2)C[C@@H]1C` (stereo partly drawn) [Compound 6a, 1-((2S,4R)-4-((4-(3-(Hydroxy(4-(((2S,4R)-2-methyl-1-propionyl-1,2,3,4-tetrahydroquinolin-4-yl)amino)phenyl)methyl)-5,6,7,8-tetrahydroimidazo[1,2-a]pyrazine-7-carbonyl)phenyl)amino)-2-methyl-3,4-dihydroquinolin-1(2H)-yl)propan-1-one]: the IC90 stood at 0.89 nM.
As for `CCC(=O)N1c2ccccc2[C@H](Nc2ccc(NC(=O)CCS(=O)(=O)Nc3ccc(N[C@@H]4C[C@H](C)N(C(=O)CC)c5ccccc54)cc3)cc2)C[C@@H]1C` [Compound 6b, N-(4-(((2S,4R)-2-Methyl-1-propionyl-1,2,3,4-tetrahydroquinolin-4-yl)amino)phenyl)-3-(N-(4-(((2S,4R)-2-methyl-1-propionyl-1,2,3,4-tetrahydroquinolin-4-yl)amino)phenyl)sulfamoyl)propanamide], the IC90 turned out to be 0.1 nM.
As for `CCC(=O)N1c2ccccc2[C@H](Nc2ccc(C(=O)NCCc3cn(-c4ccc(N[C@@H]5C[C@H](C)N(C(=O)CC)c6ccccc65)cc4)nn3)cc2)C[C@@H]1C` [Compound 6c, 4-(((2S,4R)-2-Methyl-1-propionyl-1,2,3,4-tetrahydroquinolin-4-yl)amino)-N-(2-(1-(4-(((2S,4R)-2-methyl-1-propionyl-1,2,3,4-tetrahydroquinolin-4-yl)amino)phenyl)-1H-1,2,3-triazol-4-yl)ethyl)benzamide], it took 0.83 nM to reach the 90% level (IC90).
Turning to `CCC(=O)N1c2ccccc2[C@H](Nc2ccc(CN3CC(C(=O)Nc4ccc(N[C@@H]5C[C@H](C)N(C(=O)CC)c6ccccc65)cc4)C3)cc2)C[C@@H]1C` [Compound 6d, 1-(4-(((2S,4R)-2-Methyl-1-propionyl-1,2,3,4-tetrahydroquinolin-4-yl)amino)benzyl)-N-(4-(((2S,4R)-2-methyl-1-propionyl-1,2,3,4-tetrahydroquinolin-4-yl)amino)phenyl)azetidine-3-carboxamide], it took 5.08 nM to reach the 90% level (IC90).
As for `CCC(=O)N1c2ccccc2[C@H](Nc2ccc(NS(=O)(=O)CCNC(=O)c3ccc(N[C@@H]4C[C@H](C)N(C(=O)CC)c5ccccc54)cc3)cc2)C[C@@H]1C` [Compound 6g, 4-(((2S,4R)-2-Methyl-1-propionyl-1,2,3,4-tetrahydroquinolin-4-yl)amino)-N-(2-(N-(4-(((2S,4R)-2-methyl-1-propionyl-1,2,3,4-tetrahydroquinolin-4-yl)amino)phenyl)sulfamoyl)ethyl)benzamide], the IC90 turned out to be 0.31 nM.
Under `CCC(=O)N1c2ccccc2C(Nc2ccc(NC(=O)C#CCNC(=O)c3ccc(N[C@@H]4C[C@H](C)N(C(=O)CC)c5ccccc54)cc3)cc2)CC1C` (stereo partly drawn) [Compound 6h, 4-(((2S,4R)-2-Methyl-1-propionyl-1,2,3,4-tetrahydroquinolin-4-yl)amino)-N-(4-((4-((2-methyl-1-propionyl-1,2,3,4-tetrahydroquinolin-4-yl)amino)phenyl)amino)-4-oxobut-2-yn-1-yl)benzamide] stands 0.003 nM; under `CCC(=O)N1c2ccccc2[C@H](Nc2ccc(C(=O)N3CCC(n4cc(-c5ccc(N[C@@H]6C[C@H](C)N(C(=O)CC)c7ccccc76)cc5)cn4)CC3)cc2)C[C@@H]1C` [Compound 6o, 1-((2S,4R)-2-Methyl-4-((4-(1-(1-(4-(((2S,4R)-2-methyl-1-propionyl-1,2,3,4-tetrahydroquinolin-4-yl)amino)benzoyl)piperidin-4-yl)-1H-pyrazol-4-yl)phenyl)amino)-3,4-dihydroquinolin-1(2H)-yl)propan-1-one], 0.14 nM; under `CCC(=O)N1c2ccccc2[C@H](Nc2ccc(C(=O)N3CCCN(C(=O)c4ccc(N[C@@H]5C[C@H](C)N(C(=O)CC)c6ccccc65)cc4)CC3)cc2)C[C@@H]1C` [Compound 6p, 1,1′-((2S,2′S,4R,4′R)-(((1,4-Diazepane-1,4-dicarbonyl)bis(4,1-phenylene))bis(azanediyl))bis(2-methyl-3,4-dihydroquinoline-4,1(2H)-diyl))bis(propan-1-one)], 41.5 nM.
`CCC(=O)N1c2ccccc2[C@H](Nc2ccc(C(=O)NCCn3cc(-c4ccc(N[C@@H]5C[C@H](C)N(C(=O)CC)c6ccccc65)cc4)cn3)cc2)C[C@@H]1C` [Compound 6q, 4-(((2S,4R)-2-Methyl-1-propionyl-1,2,3,4-tetrahydroquinolin-4-yl)amino)-N-(2-(4-(4-(((2S,4R)-2-methyl-1-propionyl-1,2,3,4-tetrahydroquinolin-4-yl)amino)phenyl)-1H-pyrazol-1-yl)ethyl)benzamide]: the concentration for an effect of 90% (IC90) came to 0.45 nM.
The result for `CCC(=O)N1c2ccccc2[C@H](Nc2ccc(NC(=O)C3CN(C(=O)N4CCC(N[C@@H]5C[C@H](C)N(C(=O)CC)c6ccccc65)CC4)C3)cc2)C[C@@H]1C` [Compound 10a, N-(4-(((2S,4R)-2-Methyl-1-propionyl-1,2,3,4-tetrahydroquinolin-4-yl)amino)phenyl)-1-(4-(((2S,4R)-2-methyl-1-propionyl-1,2,3,4-tetrahydroquinolin-4-yl)amino)piperidine-1-carbonyl)azetidine-3-carboxamide] reads 2.4 nM; that for `CCC(=O)N1c2ccccc2[C@H](Nc2ccc(C(=O)NCC#CC(=O)N3CCC(N[C@@H]4C[C@H](C)N(C(=O)CC)c5ccccc54)CC3)cc2)C[C@@H]1C` [Compound 10c, 4-(((2S,4R)-2-Methyl-1-propionyl-1,2,3,4-tetrahydroquinolin-4-yl)amino)-N-(4-(4-(((2S,4R)-2-methyl-1-propionyl-1,2,3,4-tetrahydroquinolin-4-yl)amino)piperidin-1-yl)-4-oxobut-2-yn-1-yl)benzamide], 0.13 nM.
Turning to `CCC(=O)N1c2ccccc2[C@H](Nc2ccc(NC(=O)CCCC(=O)Nc3ccc(N[C@@H]4C[C@H](C)N(C(=O)CC)c5ccccc54)nc3)cc2)C[C@@H]1C` [Compound 10k, N^1-(4-(((2S,4R)-2-Methyl-1-propionyl-1,2,3,4-tetrahydroquinolin-4-yl)amino)phenyl)-N^5-(6-(((2S,4R)-2-methyl-1-propionyl-1,2,3,4-tetrahydroquinolin-4-yl)amino)pyridin-3-yl)glutaramide], the concentration for an effect of 90% (IC90) came to 0.93 nM.
The result for `CCC(=O)N1c2ccc(F)cc2[C@H](Nc2ccc(C(=O)NCCCNC(=O)c3ccc(N[C@@H]4C[C@H](C)N(C(=O)CC)c5ccc(F)cc54)cc3)cc2)C[C@@H]1C` [Compound 10q, N,N′-(Propane-1,3-diyl)bis(4-(((2S,4R)-6-fluoro-2-methyl-1-propionyl-1,2,3,4-tetrahydroquinolin-4-yl)amino)benzamide)] reads 9.88 nM; that for `CCC(=O)N1c2ccc(F)cc2[C@H](Nc2ccc(C(=O)NCCNC(=O)c3ccc(N[C@@H]4C[C@H](C)N(C(=O)CC)c5ccc(F)cc54)cc3)cc2)C[C@@H]1C` [Compound 10r, N,N′-(Ethane-1,2-diyl)bis(4-(((2S,4R)-6-fluoro-2-methyl-1-propionyl-1,2,3,4-tetrahydroquinolin-4-yl)amino)benzamide)], 9.16 nM.
Under `CCC(=O)N1c2ccccc2[C@H](Nc2ccc(-c3nnc(CNC(=O)C4CCN(Cc5cc(O)cc(-c6c(C)noc6C)c5)CC4)o3)cc2)C[C@@H]1C` [Compound 12a, 1-(3-(3,5-Dimethylisoxazol-4-yl)-5-hydroxybenzyl)-N-((5-(4-(((2S,4R)-2-methyl-1-propionyl-1,2,3,4-tetrahydroquinolin-4-yl)amino)phenyl)-1,3,4-oxadiazol-2-yl)methyl)piperidine-4-carboxamide] stands 1.01 nM; under `CCC(=O)N1c2ccccc2[C@H](Nc2ccc(NC(=O)C3CN(C(=O)C4CCN(Cc5cc(O)cc(-c6c(C)noc6C)c5)CC4)C3)cc2)C[C@@H]1C` [Compound 12b, 1-(1-(3-(3,5-Dimethylisoxazol-4-yl)-5-hydroxybenzyl)piperidine-4-carbonyl)-N-(4-(((2S,4R)-2-methyl-1-propionyl-1,2,3,4-tetrahydroquinolin-4-yl)amino)phenyl)azetidine-3-carboxamide], 4.35 nM.
Compound `CCC(=O)N1c2ccccc2[C@H](Nc2ccc(SCCNC(=O)c3ccc(C4=N[C@@H](CC(=O)OCCN(C)C)c5nnc(C)n5-c5sc(C)c(C)c54)cc3)cc2)C[C@@H]1C` [Compound 13a, 2-(Dimethylamino)ethyl 2-((S)-2,3,9-trimethyl-4-(4-((2-((4-(((2S,4R)-2-methyl-1-propionyl-1,2,3,4-tetrahydroquinolin-4-yl)amino)phenyl)thio)ethyl)carbamoyl)phenyl)-6H-thieno[3,2-f][1,2,4]triazolo[4,3-a][1,4]diazepin-6-yl)acetate] returned a concentration for an effect of 90% (IC90) of 0.49 nM.
With `CCC(=O)N1c2ccccc2[C@H](Nc2ccc(-c3cnn(CC(=O)Nc4ccc(C5=NCc6nnc(C)n6-c6sc(C)c(C)c65)cc4)c3)cc2)C[C@@H]1C` [Compound 14a, 2-(4-(4-(((2S,4R)-2-Methyl-1-propionyl-1,2,3,4-tetrahydroquinolin-4-yl)amino)phenyl)-1H-pyrazol-1-yl)-N-(4-(2,3,9-trimethyl-6H-thieno[3,2-f][1,2,4]triazolo[4,3-a][1,4]diazepin-4-yl)phenyl)acetamide], it took 0.04 nM to reach the 90% level (IC90).
Regarding `CCC(=O)N1c2ccccc2[C@H](Nc2ccc(-c3cnn(CCNC(=O)c4ccc(C5=NCc6nnc(C)n6-c6sc(C)c(C)c65)cc4)c3)cc2)C[C@@H]1C` [Compound 14b, N-(2-(4-(4-(((2S,4R)-2-Methyl-1-propionyl-1,2,3,4-tetrahydroquinolin-4-yl)amino)phenyl)-1H-pyrazol-1-yl)ethyl)-4-(2,3,9-trimethyl-6H-thieno[3,2-f][1,2,4]triazolo[4,3-a][1,4]diazepin-4-yl)benzamide], the concentration for an effect of 90% (IC90) worked out at 0.12 nM.
The result for `CCC(=O)N1c2ccccc2[C@H](Nc2ccc(NC(=O)COCC(=O)Nc3ccc(C4=NCc5nnc(C)n5-c5sc(C)c(C)c54)cc3)cc2)C[C@@H]1C` [Compound 14d, N-(4-(((2S,4R)-2-Methyl-1-propionyl-1,2,3,4-tetrahydroquinolin-4-yl)amino)phenyl)-2-(2-oxo-2-((4-(2,3,9-trimethyl-6H-thieno[3,2-f][1,2,4]triazolo[4,3-a][1,4]diazepin-4-yl)phenyl)amino)ethoxy)acetamide] reads 0.16 nM.
